Experimental data: patent US20250186600A1, “EXCIPIENT COMPOUNDS FOR PROTEIN FORMULATIONS” (Comera Life Sciences, Inc., priority 2020, published 2025)
Several values for one entry are separate records, joined by “and”; a condition that tells them apart may be missing. Equal entries are not always repeated. Structures can show the parent of a compound that is named as a salt. Each block holds one molecule with its values, some of them ahead of it.

What was measured:
[1] = system: infliximab; assay: Thermal degradation assay at 55° C., normalized monomer loss rate by HP-SEC (Example 51); assay type: physicochemical; details: infliximab about 2 mg/mL, 20 mM phosphate pH 7, 55° C.
Protocol: ® infliximab was obtained from the Clinigen Group and reconstituted according to the instructions in the Janssen package insert, resulting in a 10 mg/mL infliximab solution in 5 mM phosphate buffer, pH about 7, with 50 mg/mL sucrose and 0.05 mg/mL polysorbate 80. The reconstituted drug product was then combined 1:1 by volume with 50 mM sodium acetate buffer at pH 5. The resulting solution was then injected onto a small preparative scale cation exchange column (GE Healthcare, Chicago, IL). After the infliximab was loaded onto the column, the column was washed with 10 column volumes of 50 mM sodium acetate buffer, pH 5. The infliximab was then eluted from the column with five column volumes of a 250 mM sodium chloride, 50 mM sodium acetate buffer at pH 5. […] Stock solutions of either 4 or 8 mg/mL infliximab in 20 mM phosphate buffer at pH 7 were then used in subsequent tests.
All excipients used in this Example, listed in Table 52 below, were of the highest purity, and were obtained from Sigma Aldrich (St. Louis, MO) or Cayman Chemical (Ann Arbor, MI). The stock infliximab solutions were mixed with stock excipient solutions containing the excipients listed in Table 52 formulated in 20 mM phosphate buffer, pH 7 to achieve a final infliximab concentration of about 2 mg/mL in each sample. The samples containing the infliximab solutions and the stock excipient solutions were then aliquoted into five 100 μL aliquots in PCR tubes. […] These stressed samples were then analyzed for monomer content by high performance size exclusion chromatography (HP-SEC) using an Agilent 1100 series HPLC equipped with a diode array detector monitoring absorbance at 280 nm. […] For each sample, the monomer peak area was divided by the monomer peak area obtained from an identical but unstressed sample to obtain the percent monomer remaining after exposure to thermal stress. The remaining monomer as a percentage of the unstressed sample was then plotted as a function of incubation time and the absolute value of the slope of a linear fit to the data was recorded as the monomer loss rate.

[2] = system: bovine gamma globulin (BGG); assay: Normalized viscosity of BGG with caffeine and a secondary excipient (Example 40); assay type: physicochemical; details: Excipient A caffeine 15 mg/mL + Excipient B 20 mg/mL; BGG about 280 mg/mL, 20 mM histidine pH 6, 25° C.
[3] = system: ustekinumab; assay: Urea denaturation, Sypro orange fluorescence (Example 44); assay type: physicochemical; details: excipient 5 mg/mL, ustekinumab 1 mg/mL, 6M urea, 20 mM histidine pH 6.0, Sypro orange fluorescence
Description: It is known that urea denatures proteins in solution and causes them to unfold. The screening methodology in this example involved adding a specific concentration of urea to a therapeutic protein solution such as ustekinumab. […] One method to track protein unfolding involves the use of extrinsic fluorescent dyes such as Sypro orange. Sypro orange binds to hydrophobic regions in the unfolded protein structure, leading to an increase in the fluorescence signal observed. Measuring the differences in the fluorescence intensity of unfolded protein-Sypro orange complex in presence of different excipients thus allows one to identify any stabilizing effects.
All excipients used in this Example, listed in Table 45 below, were of the highest purity, and were obtained from Sigma Aldrich (St. Louis, MO) or Cayman Chemical (Ann Arbor, MI). […] This urea stock solution was then added to a final concentration of 6M to produce the test solutions (excipient plus protein plus urea). […] The pH of the mixture was rechecked and confirmed to be at pH 6.0. The test solutions were allowed to incubate at room temperature for 30 min.

[4] = system: ustekinumab; assay: Stabilization at low pH, Sypro orange fluorescence (Example 45); details: excipient 5 mg/mL, ustekinumab 1 mg/mL, glycine acidification buffer pH 2.6, Sypro orange fluorescence
[5] = system: omalizumab; assay: DLS viscosity of concentrated omalizumab (Example 53); assay type: physicochemical; parameters: key to DLS Viscosity, Replicate 1: observation on combining excipient with protein / DLS Viscosity, Replicate 2: observation on combining excipient with protein: * Combination of excipient with protein resulted in reversible precipitation; details: 20 mM HisHCl pH 6; for DLS Viscosity, Replicate 1 / DLS Viscosity, Replicate 2: concentrated omalizumab 9 parts : 1 part excipient stock (1 M or solubility limit)
Protocol: O-(octylphosphoryl)choline was purchased from Sigma Aldrich (St. […] O-(octylphosphoryl)choline was used as a stock excipient without additional preparation. […] In this example, the ratio of apparent radius to the actual radius of the gold nanoparticle was multiplied by the viscosity of water at 25° C. to calculate the viscosity of the protein formulation in centipoise (cP).

[6] = system: omalizumab; assay: DLS viscosity of concentrated omalizumab (Example 54); assay type: physicochemical; details: concentrated omalizumab 9 parts : 1 part excipient stock (1 M or solubility limit), 20 mM HisHCl pH 6
Protocol: Hordenine HCl was purchased from Bulk Supplements (Henderson, NV).
The concentrated protein formulation was then combined with a stock excipient solution or a control at a ratio of 9 parts protein: 1 part excipient solution or buffer (for the control), and aliquots were added to the wells of a 384 well microplate (Aurora Microplates, Whitefish, MT). […] After the microplate was shaken, 2 microliters of a 5-fold dilution of polyethylene glycol surface-modified gold nanoparticles having a diameter of 100 nm (nanoComposix, San Diego, CA) in 20 mM His HCl were added to each sample well. […] In this example, the ratio of apparent radius to the actual radius of the gold nanoparticle was multiplied by the viscosity of water at 25° C. to calculate the viscosity of the protein formulation in centipoise (cP).

[7] = Caffeine solubility with co-solutes during refrigerated storage (Example 61); assay type: physicochemical; parameters: key: (PPT)—precipitate observed; (—)—clear solution observed; details: 50 mM co-solute, 25 mM histidine pH 6, stored 2 to 5° C.
Protocol: The resulting microplates were then sealed with microplate tape and stored in a refrigerator with the temperature maintained in the range of 2 to 5° C. Over the course of storage, the microplates were visually observed for evidence of precipitate in the well.

[8] = concentrated omalizumab 9 parts : 1 part excipient stock

Compound: Cl.N=C(N)NCCC[C@H](N)C(=O)O [Arg HCl]
Monomer loss rate ([1]; excipient 125 mM): 0.1186 % mon/min
Normalized monomer loss rate ([1]; excipient 125 mM): 0.740

Compound: NCCSSCCN [Cystamine]
% increased stability [3]: 8.8%
% change in stability [4]: 17.8%

Compound: CCN(CC)CCOC(=O)C1(C2CCCCC2)CCCCC1 [Dicyclomine HCl]
DLS Viscosity, Replicate 1: observation on combining excipient with protein [5, 8]: *
DLS Viscosity, Replicate 2: observation on combining excipient with protein [5, 8]: *

Compound: CC(O)(P(=O)(O)O)P(=O)(O)O [Etidronate]
Monomer loss rate ([1]; excipient 25 mM): 0.0824 % mon/min
Normalized monomer loss rate ([1]; excipient 25 mM): 0.514
Monomer loss rate ([1]; excipient 50 mM): 0.0685 % mon/min
Normalized monomer loss rate ([1]; excipient 50 mM): 0.428
Monomer loss rate ([1]; excipient 100 mM): 0.0321 % mon/min and 0.0284 % mon/min
Normalized monomer loss rate ([1]; excipient 100 mM): 0.200 and 0.177

Compound: O=S(=O)(O)CCN1CCN(CCO)CC1 [HEPES]
DLS Viscosity, Replicate 1 [5]: 15.9 cP
DLS Viscosity, Replicate 2 [5]: 17.4 cP

Compound: [Cl-].[Na+] [NaCl]
Monomer loss rate ([1]; excipient 150 mM): 0.0727 % mon/min
Normalized monomer loss rate ([1]; excipient 150 mM): 0.454

Compound: NC[C@H]1O[C@H](O[C@H]2[C@H](O)[C@@H](O)[C@H](N)C[C@@H]2N)[C@H](N)[C@@H](O)[C@@H]1O [Neamine]
% increased stability [3]: 2.8%
% change in stability [4]: 5.9%

Compound: CCCCCCCCOP(=O)([O-])OCC[N+](C)(C)C [O-(octylphosphoryl)choline]
DLS Viscosity, Replicate 1 [5]: 35.6 cP
DLS Viscosity, Replicate 2 [5]: 35.4 cP

Compound: OC[C@@H](O)[C@@H](O)[C@H](O)[C@@H](O)CO [Sorbitol]
Monomer loss rate ([1]; excipient 200 mM): 0.0656 % mon/min
Normalized monomer loss rate ([1]; excipient 200 mM): 0.409

Compound: NCCCCNCCCN [Spermidine]
% increased stability [3]: 12.9%
% change in stability [4]: 98.1%

Compound: NCCCNCCCCNCCCN [Spermine]
% increased stability [3]: 16.8%
% change in stability [4]: 90.0%

The remaining lines, values ahead:

Normalized Viscosity [2]: 0.73
Compound: N[C@@H](CC(=O)O)C(=O)O [Aspartic acid]

% increased stability [3]: 7.0%
% change in stability [4]: 95.9%
Compound: O[C@H]1[C@H](O)[C@@H](O)CN2CC[C@H](O)[C@H]12 [Castanospermine]

DLS Viscosity, Replicate 1 [5]: 16.8 cP
DLS Viscosity, Replicate 2 [5]: 15.6 cP
DLS Viscosity, Replicate 1 [6]: 40.5 cP
DLS Viscosity, Replicate 2 [6]: 74.0 cP
Compound: CCCCn1ccnc1 [Excipient 1-butylimidazole, 1-butylimidazole]

DLS Viscosity, Replicate 1 [5]: 13.6 cP
DLS Viscosity, Replicate 2 [5]: 14.0 cP
DLS Viscosity, Replicate 1 [6]: 27.0 cP
DLS Viscosity, Replicate 2 [6]: 33.1 cP
Compound: CCCCCCn1ccnc1 [Excipient 1-hexylimidazole, 1-hexylimidazole]

% increased stability [3]: 2.7%
Day 1 (visual observation for precipitate) ([7]; caffeine 7.5 mg/mL): —
Day 7 (visual observation for precipitate) ([7]; caffeine 7.5 mg/mL): —
Day 18 (visual observation for precipitate) ([7]; caffeine 7.5 mg/mL): —
Day 27 (visual observation for precipitate) ([7]; caffeine 7.5 mg/mL): —
Day 56 (visual observation for precipitate) ([7]; caffeine 7.5 mg/mL): —
Day 1 (visual observation for precipitate) ([7]; caffeine 10 mg/mL): —
Day 7 (visual observation for precipitate) ([7]; caffeine 10 mg/mL): —
Day 18 (visual observation for precipitate) ([7]; caffeine 10 mg/mL): —
Day 27 (visual observation for precipitate) ([7]; caffeine 10 mg/mL): —
Day 56 (visual observation for precipitate) ([7]; caffeine 10 mg/mL): —
Day 1 (visual observation for precipitate) ([7]; caffeine 12.5 mg/mL): —
Day 7 (visual observation for precipitate) ([7]; caffeine 12.5 mg/mL): —
Day 18 (visual observation for precipitate) ([7]; caffeine 12.5 mg/mL): —
Day 27 (visual observation for precipitate) ([7]; caffeine 12.5 mg/mL): —
Day 56 (visual observation for precipitate) ([7]; caffeine 12.5 mg/mL): —
Day 1 (visual observation for precipitate) ([7]; caffeine 15 mg/mL): —
Day 7 (visual observation for precipitate) ([7]; caffeine 15 mg/mL): —
Day 18 (visual observation for precipitate) ([7]; caffeine 15 mg/mL): —
Day 27 (visual observation for precipitate) ([7]; caffeine 15 mg/mL): —
Day 56 (visual observation for precipitate) ([7]; caffeine 15 mg/mL): PPT
Day 1 (visual observation for precipitate) ([7]; caffeine 20 mg/mL): —
Day 7 (visual observation for precipitate) ([7]; caffeine 20 mg/mL): —
Day 18 (visual observation for precipitate) ([7]; caffeine 20 mg/mL): PPT
Day 27 (visual observation for precipitate) ([7]; caffeine 20 mg/mL): PPT
Day 56 (visual observation for precipitate) ([7]; caffeine 20 mg/mL): PPT
Compound: NC(=O)c1cccnc1 [Nicotinamide]

DLS Viscosity, Replicate 1 [5]: 45.5 cP
DLS Viscosity, Replicate 2 [5]: 36.2 cP
Compound: OC(CCN1CCCCC1)(c1ccccc1)c1ccccc1 [Pridinol Methanesulfonate]

% increased stability [3]: 6.1%
% change in stability [4]: 8.3%
Compound: CCNC(=O)CC[C@H](N)C(=O)O [Theanine]
